Source: paper PMC5078040 (Oncotarget, 2016)
pEC50, pIC50: −log10 of the molar value.

Assays:
PI3Kδ = PI3Kδ (Homo sapiens, UniProt O00329); experiment: ADP-glo biochemical assay; conditions: purified enzyme, read-out: biochemical IC50 PI3K Delta
Protocol: (§2) The reaction in each tube was started immediately by adding ATP and kept going for an hour under 37°C. After the tube cooled for 5 minutes at room temperature, 5 μL solvent reactions were carried out in a 384-well plate. Then 5 μL of ADP-Glo™ reagent was added into each well to stop the reaction and consume the remaining ADP within 40 minutes. At the end, 10 μL of kinase detection reagent was added into the well and incubated for 30 minutes to produce a luminescence signal. Luminescence signal was measured with an automated plate reader (Perkin-Elmer Envision) and each measurement was performed in triplicate.

[1] = target: T1, ABL1(H396P)-nonphosphorylated (Homo sapiens, UniProt P00519, H396P); experiment: KinomeScan; type: binding; conditions: 1uM
T1 construct: purchased DiscoveRx KINOMEscan

ACVR1B = target: T2, ACVR1B (Homo sapiens, UniProt P36896); experiment: KinomeScan; type: binding; conditions: 1uM
T2 construct: purchased DiscoveRx KINOMEscan
T2 sequence (P36896 24-505): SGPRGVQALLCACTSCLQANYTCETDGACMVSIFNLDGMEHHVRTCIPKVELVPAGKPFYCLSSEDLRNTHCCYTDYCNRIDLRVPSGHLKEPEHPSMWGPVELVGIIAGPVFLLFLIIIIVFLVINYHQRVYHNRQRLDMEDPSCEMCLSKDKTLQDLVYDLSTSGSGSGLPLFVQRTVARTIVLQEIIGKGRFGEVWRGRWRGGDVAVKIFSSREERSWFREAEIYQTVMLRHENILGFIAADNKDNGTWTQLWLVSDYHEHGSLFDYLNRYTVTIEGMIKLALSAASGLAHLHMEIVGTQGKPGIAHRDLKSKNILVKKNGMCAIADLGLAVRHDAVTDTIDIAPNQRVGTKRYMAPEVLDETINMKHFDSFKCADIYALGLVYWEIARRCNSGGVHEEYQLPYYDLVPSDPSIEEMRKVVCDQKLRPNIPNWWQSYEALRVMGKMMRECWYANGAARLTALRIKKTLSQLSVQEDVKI

ALK = target: T3, ALK (Homo sapiens, UniProt Q9UM73); experiment: KinomeScan; type: binding; conditions: 1uM
T3 construct: purchased DiscoveRx KINOMEscan

ALK(C1156Y) = target: T4, ALK(C1156Y) (Homo sapiens, UniProt Q9UM73, C1156Y); experiment: KinomeScan; type: binding; conditions: 1uM
T4 construct: purchased DiscoveRx KINOMEscan

CAMK1G = target: T5, CAMK1G (Homo sapiens, UniProt Q96NX5); experiment: KinomeScan; type: binding; conditions: 1uM
T5 construct: purchased DiscoveRx KINOMEscan

CDC2L2 = target: T6, CDC2L2 (Homo sapiens, UniProt Q9UQ88); experiment: KinomeScan; type: binding; conditions: 1uM
T6 construct: purchased DiscoveRx KINOMEscan

CLK2 = target: T7, CLK2 (Homo sapiens, UniProt P49760); experiment: KinomeScan; type: binding; conditions: 1uM
T7 construct: purchased DiscoveRx KINOMEscan

CSF1R-autoinhibited = target: T8, CSF1R-autoinhibited (Homo sapiens, UniProt P07333); experiment: KinomeScan; type: binding; conditions: 1uM
T8 construct: purchased DiscoveRx KINOMEscan
T8 sequence (P07333 539-972 limits assumed): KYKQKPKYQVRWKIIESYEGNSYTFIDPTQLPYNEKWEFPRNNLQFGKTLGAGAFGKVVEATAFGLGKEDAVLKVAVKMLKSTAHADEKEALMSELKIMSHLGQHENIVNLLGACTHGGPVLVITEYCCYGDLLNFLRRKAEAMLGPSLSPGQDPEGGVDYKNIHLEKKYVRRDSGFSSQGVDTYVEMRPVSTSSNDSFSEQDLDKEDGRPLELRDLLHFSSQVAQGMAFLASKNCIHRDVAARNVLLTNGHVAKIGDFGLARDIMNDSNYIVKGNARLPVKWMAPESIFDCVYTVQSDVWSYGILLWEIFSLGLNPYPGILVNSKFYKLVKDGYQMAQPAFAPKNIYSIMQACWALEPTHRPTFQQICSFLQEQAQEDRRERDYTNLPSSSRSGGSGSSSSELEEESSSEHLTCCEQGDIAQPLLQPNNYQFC

DYRK2 = target: T9, DYRK2 (Homo sapiens, UniProt Q92630); experiment: KinomeScan; type: binding; conditions: 1uM
T9 construct: purchased DiscoveRx KINOMEscan

EPHB1 = target: T10, EPHB1 (Homo sapiens, UniProt P54762); experiment: KinomeScan; type: binding; conditions: 1uM
T10 construct: purchased DiscoveRx KINOMEscan

EPHB6 = target: T11, EPHB6 (Homo sapiens, UniProt O15197); experiment: KinomeScan; type: binding; conditions: 1uM
T11 construct: purchased DiscoveRx KINOMEscan

ERN1 = target: T12, ERN1 (Homo sapiens, UniProt O75460); experiment: KinomeScan; type: binding; conditions: 1uM
T12 construct: purchased DiscoveRx KINOMEscan

FAK = target: T13, FAK (Homo sapiens, UniProt Q05397); experiment: KinomeScan; type: binding; conditions: 1uM
T13 construct: purchased DiscoveRx KINOMEscan

FLT1 = target: T14, FLT1 (Homo sapiens, UniProt P17948); experiment: KinomeScan; type: binding; conditions: 1uM
T14 construct: purchased DiscoveRx KINOMEscan

GAK = target: T15, GAK (Homo sapiens, UniProt O14976); experiment: KinomeScan; type: binding; conditions: 1uM
T15 construct: purchased DiscoveRx KINOMEscan
T15 sequence (O14976 whole entry): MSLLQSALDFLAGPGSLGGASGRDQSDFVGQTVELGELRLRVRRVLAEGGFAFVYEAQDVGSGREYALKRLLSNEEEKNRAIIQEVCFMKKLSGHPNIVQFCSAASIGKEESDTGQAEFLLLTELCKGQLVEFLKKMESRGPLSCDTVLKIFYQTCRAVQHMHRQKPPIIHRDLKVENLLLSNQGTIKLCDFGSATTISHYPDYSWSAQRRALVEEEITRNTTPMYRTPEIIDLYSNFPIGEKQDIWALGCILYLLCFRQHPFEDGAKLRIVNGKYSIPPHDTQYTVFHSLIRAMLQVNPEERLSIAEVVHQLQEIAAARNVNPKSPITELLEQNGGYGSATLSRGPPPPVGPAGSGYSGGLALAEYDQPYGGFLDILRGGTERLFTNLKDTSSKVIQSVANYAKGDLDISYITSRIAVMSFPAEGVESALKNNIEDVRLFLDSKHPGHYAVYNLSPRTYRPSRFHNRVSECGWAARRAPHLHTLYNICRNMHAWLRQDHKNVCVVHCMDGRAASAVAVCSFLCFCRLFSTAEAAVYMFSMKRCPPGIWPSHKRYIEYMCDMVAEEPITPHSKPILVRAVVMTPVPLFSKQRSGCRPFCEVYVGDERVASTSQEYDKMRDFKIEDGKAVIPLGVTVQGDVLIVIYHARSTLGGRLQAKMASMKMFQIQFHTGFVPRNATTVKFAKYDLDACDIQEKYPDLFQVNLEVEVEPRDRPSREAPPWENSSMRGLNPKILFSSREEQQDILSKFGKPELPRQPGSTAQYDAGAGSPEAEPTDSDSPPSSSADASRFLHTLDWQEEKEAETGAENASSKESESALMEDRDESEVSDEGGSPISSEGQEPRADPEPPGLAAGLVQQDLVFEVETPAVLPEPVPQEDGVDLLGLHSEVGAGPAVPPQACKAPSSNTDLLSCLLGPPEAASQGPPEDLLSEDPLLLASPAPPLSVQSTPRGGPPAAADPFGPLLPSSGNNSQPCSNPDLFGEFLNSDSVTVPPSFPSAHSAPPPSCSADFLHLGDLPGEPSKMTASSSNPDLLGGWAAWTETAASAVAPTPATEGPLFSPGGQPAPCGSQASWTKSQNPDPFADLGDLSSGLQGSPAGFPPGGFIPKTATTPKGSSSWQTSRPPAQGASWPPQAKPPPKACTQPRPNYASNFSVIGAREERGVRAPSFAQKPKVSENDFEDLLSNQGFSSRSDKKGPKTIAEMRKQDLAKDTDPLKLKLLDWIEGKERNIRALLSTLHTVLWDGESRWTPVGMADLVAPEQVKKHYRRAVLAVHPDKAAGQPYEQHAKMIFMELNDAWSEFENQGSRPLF

HCK = target: T16, HCK (Homo sapiens, UniProt P08631); experiment: KinomeScan; type: binding; conditions: 1uM
T16 construct: purchased DiscoveRx KINOMEscan

HIPK2 = target: T17, HIPK2 (Homo sapiens, UniProt Q9H2X6); experiment: KinomeScan; type: binding; conditions: 1uM
T17 construct: purchased DiscoveRx KINOMEscan

JNK1 = target: T18, JNK1 (Homo sapiens, UniProt P45983); experiment: KinomeScan; type: binding; conditions: 1uM
T18 construct: purchased DiscoveRx KINOMEscan

LATS1 = target: T19, LATS1 (Homo sapiens, UniProt O95835); experiment: KinomeScan; type: binding; conditions: 1uM
T19 construct: purchased DiscoveRx KINOMEscan

LIMK1 = target: T20, LIMK1 (Homo sapiens, UniProt P53667); experiment: KinomeScan; type: binding; conditions: 1uM
T20 construct: purchased DiscoveRx KINOMEscan
T20 sequence (P53667 whole entry): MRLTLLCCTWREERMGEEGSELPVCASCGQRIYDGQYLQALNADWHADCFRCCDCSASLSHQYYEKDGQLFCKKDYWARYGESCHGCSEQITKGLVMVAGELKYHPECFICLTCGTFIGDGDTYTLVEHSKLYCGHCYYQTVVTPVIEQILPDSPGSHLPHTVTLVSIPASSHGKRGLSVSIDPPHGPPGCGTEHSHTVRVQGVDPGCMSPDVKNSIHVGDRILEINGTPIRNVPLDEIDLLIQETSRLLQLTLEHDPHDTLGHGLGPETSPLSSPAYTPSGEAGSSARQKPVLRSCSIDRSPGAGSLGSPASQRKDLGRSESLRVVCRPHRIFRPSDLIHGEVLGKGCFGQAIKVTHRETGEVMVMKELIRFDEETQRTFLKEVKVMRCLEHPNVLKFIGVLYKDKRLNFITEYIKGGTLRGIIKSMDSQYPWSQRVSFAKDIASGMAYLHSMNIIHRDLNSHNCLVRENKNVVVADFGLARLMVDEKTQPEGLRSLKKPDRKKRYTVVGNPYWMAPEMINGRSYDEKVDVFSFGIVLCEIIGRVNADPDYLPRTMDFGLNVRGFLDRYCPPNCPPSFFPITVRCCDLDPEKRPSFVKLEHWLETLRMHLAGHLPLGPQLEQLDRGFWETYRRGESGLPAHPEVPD

LZK = target: T21, LZK (Homo sapiens, UniProt O43283); experiment: KinomeScan; type: binding; conditions: 1uM
T21 construct: purchased DiscoveRx KINOMEscan
T21 sequence (O43283 whole entry): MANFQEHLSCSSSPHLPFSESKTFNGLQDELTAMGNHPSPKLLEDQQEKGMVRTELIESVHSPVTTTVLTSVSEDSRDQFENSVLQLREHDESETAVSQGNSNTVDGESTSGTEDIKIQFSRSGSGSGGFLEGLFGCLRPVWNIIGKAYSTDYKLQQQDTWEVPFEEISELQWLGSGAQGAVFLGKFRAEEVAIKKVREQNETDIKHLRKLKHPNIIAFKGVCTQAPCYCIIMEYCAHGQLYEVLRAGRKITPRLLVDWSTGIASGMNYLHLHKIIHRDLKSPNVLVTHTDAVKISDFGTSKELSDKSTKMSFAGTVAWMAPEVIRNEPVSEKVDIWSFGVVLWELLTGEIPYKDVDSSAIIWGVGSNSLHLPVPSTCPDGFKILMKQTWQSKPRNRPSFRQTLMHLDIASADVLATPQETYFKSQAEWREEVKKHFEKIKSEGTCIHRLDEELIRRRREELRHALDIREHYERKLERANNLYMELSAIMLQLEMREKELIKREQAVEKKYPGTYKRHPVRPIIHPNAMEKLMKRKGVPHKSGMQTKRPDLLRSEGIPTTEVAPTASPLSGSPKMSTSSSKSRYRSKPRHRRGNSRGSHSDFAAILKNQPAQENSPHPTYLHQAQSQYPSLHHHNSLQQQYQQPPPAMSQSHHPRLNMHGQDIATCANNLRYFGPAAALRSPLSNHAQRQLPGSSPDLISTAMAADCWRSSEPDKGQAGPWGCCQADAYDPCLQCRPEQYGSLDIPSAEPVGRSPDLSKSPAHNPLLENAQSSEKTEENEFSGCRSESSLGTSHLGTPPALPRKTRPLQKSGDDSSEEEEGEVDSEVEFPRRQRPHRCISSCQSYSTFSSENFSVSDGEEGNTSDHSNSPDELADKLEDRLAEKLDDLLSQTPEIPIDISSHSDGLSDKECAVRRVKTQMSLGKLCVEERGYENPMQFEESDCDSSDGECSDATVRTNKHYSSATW

MAP3K1 = target: T22, MAP3K1 (Homo sapiens, UniProt Q13233); experiment: KinomeScan; type: binding; conditions: 1uM
T22 construct: purchased DiscoveRx KINOMEscan

MYO3B = target: T23, MYO3B (Homo sapiens, UniProt Q8WXR4); experiment: KinomeScan; type: binding; conditions: 1uM
T23 construct: purchased DiscoveRx KINOMEscan

NLK = target: T24, NLK (Homo sapiens, UniProt Q9UBE8); experiment: KinomeScan; type: binding; conditions: 1uM
T24 construct: purchased DiscoveRx KINOMEscan

PAK2 = target: T25, PAK2 (Homo sapiens, UniProt Q13177); experiment: KinomeScan; type: binding; conditions: 1uM
T25 construct: purchased DiscoveRx KINOMEscan

PCTK2 = target: T26, PCTK2 (Homo sapiens, UniProt Q00537); experiment: KinomeScan; type: binding; conditions: 1uM
T26 construct: purchased DiscoveRx KINOMEscan

PIK3CA(E545A) = target: T27, PIK3CA(E545A) (Homo sapiens, UniProt P42336, E545A); experiment: KinomeScan; type: binding; conditions: 1uM
T27 construct: purchased DiscoveRx KINOMEscan
T27 sequence (P42336 whole entry E545A): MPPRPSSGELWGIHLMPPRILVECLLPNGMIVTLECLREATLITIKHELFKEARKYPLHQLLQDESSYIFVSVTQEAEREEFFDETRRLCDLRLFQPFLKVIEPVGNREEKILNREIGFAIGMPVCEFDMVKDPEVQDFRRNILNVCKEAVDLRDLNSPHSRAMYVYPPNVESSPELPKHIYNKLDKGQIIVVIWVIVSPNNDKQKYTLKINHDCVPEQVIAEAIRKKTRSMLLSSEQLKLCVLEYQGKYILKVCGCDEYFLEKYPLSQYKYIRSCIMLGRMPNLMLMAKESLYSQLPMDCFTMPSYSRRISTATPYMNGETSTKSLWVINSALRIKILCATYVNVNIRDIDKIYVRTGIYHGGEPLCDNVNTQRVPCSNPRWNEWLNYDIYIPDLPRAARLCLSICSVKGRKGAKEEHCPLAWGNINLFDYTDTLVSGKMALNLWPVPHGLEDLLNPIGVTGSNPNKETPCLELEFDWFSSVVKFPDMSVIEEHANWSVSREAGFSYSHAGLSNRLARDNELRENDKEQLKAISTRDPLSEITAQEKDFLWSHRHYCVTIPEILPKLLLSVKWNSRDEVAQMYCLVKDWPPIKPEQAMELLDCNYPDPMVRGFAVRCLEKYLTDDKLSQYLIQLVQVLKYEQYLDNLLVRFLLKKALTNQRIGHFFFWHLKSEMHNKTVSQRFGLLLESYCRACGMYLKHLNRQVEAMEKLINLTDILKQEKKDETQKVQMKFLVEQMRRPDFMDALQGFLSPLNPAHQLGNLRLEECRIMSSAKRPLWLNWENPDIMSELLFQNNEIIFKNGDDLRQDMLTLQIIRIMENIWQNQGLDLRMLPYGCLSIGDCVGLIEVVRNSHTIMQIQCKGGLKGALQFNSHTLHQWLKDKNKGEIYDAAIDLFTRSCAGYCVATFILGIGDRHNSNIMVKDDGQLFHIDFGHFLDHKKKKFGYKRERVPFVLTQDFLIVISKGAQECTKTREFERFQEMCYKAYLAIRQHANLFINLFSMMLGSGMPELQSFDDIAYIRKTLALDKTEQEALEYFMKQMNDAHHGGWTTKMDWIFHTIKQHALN

PIK3CA(H1047L) = target: T28, PIK3CA(H1047L) (Homo sapiens, UniProt P42336, H1047L); experiment: KinomeScan; type: binding; conditions: 1uM
T28 construct: purchased DiscoveRx KINOMEscan
T28 sequence (P42336 whole entry H1047L): as the sequence (P42336 whole entry E545A) above, with A545E, H1047L counted along it

PRKCD = target: T29, PRKCD (Homo sapiens, UniProt Q05655); experiment: KinomeScan; type: binding; conditions: 1uM
T29 construct: purchased DiscoveRx KINOMEscan

RET(V804L) = target: T30, RET(V804L) (Homo sapiens, UniProt P07949, V804L); experiment: KinomeScan; type: binding; conditions: 1uM
T30 construct: purchased DiscoveRx KINOMEscan

RIOK1 = target: T31, RIOK1 (Homo sapiens, UniProt Q9BRS2); experiment: KinomeScan; type: binding; conditions: 1uM
T31 construct: purchased DiscoveRx KINOMEscan

SRMS = target: T32, SRMS (Homo sapiens, UniProt Q9H3Y6); experiment: KinomeScan; type: binding; conditions: 1uM
T32 construct: purchased DiscoveRx KINOMEscan

TTK = target: T33, TTK (Homo sapiens, UniProt P33981); experiment: KinomeScan; type: binding; conditions: 1uM
T33 construct: purchased DiscoveRx KINOMEscan

Vps34 = target: T34, Vps34 (Homo sapiens, UniProt Q8NEB9); experiment: ADP-glo biochemical assay
T34 construct: purchased Invitrogen
Protocol: as §2

PI4KB = target: T35, PI4KB (Homo sapiens, UniProt Q9UBF8); experiment: ADP-glo biochemical assay
T35 construct: purchased Invitrogen
Protocol: as §2

4EBP1 phosphorylation = experiment: Signaling pathway effect examination (western blotting); type: cell-based, human; conditions: all of the cell lines
Protocol: (§1) The cells were collected and lysed, and cell lysates were analyzed by western blotting.

Erk phosphorylation = experiment: as above; type: cell-based, human
Protocol: as §1

[2] = tested on: NF-kB P65 phosphorylation; experiment: as above; type: cell-based, human; conditions: any of the tested cell lines
Protocol: as §1

[3] = tested on: phosphorylation of Akt at both Thr308 and Ser473; experiment: as above; type: cell-based, human; conditions: 1 hour
Protocol: as §1

[4] = tested on: phosphorylation of PRAS40 GSK3b and FOXO1; experiment: as above; type: cell-based, human; conditions: B-cell malignant cell lines
Protocol: as §1

Cc1nc(NC(=O)[C@@H](N)C(C)C)sc1-c1cnc(Cl)c(NS(=O)(=O)c2ccccc2)c1 [PI3KD-IN-015]
pIC50 (PI3Kδ): 8.30
KinomeScan ABL1(H396P)-nonphosphorylated [1]: 100
KinomeScan ACVR1B (ACVR1B): 85
KinomeScan ALK (ALK): 100
KinomeScan ALK(C1156Y) (ALK(C1156Y)): 100
KinomeScan CAMK1G (CAMK1G): 94
KinomeScan CDC2L2 (CDC2L2): 100
KinomeScan CLK2 (CLK2): 90
KinomeScan CSF1R-autoinhibited (CSF1R-autoinhibited): 100
KinomeScan DYRK2 (DYRK2): 100
KinomeScan EPHB1 (EPHB1): 100
KinomeScan EPHB6 (EPHB6): 100
KinomeScan ERN1 (ERN1): 92
KinomeScan FAK (FAK): 80
KinomeScan FLT1 (FLT1): 89
KinomeScan GAK (GAK): 100
KinomeScan HCK (HCK): 100
KinomeScan HIPK2 (HIPK2): 100
KinomeScan JNK1 (JNK1): 100
KinomeScan LATS1 (LATS1): 98
KinomeScan LIMK1 (LIMK1): 100
KinomeScan LZK (LZK): 92
KinomeScan MAP3K1 (MAP3K1): 96
KinomeScan MYO3B (MYO3B): 100
KinomeScan NLK (NLK): 92
KinomeScan PAK2 (PAK2): 89
KinomeScan PCTK2 (PCTK2): 100
KinomeScan PIK3CA(E545A) (PIK3CA(E545A)): 5.2
KinomeScan PIK3CA(H1047L) (PIK3CA(H1047L)): 0
KinomeScan PRKCD (PRKCD): 100
KinomeScan RET(V804L) (RET(V804L)): 97
KinomeScan RIOK1 (RIOK1): 94
KinomeScan SRMS (SRMS): 90
KinomeScan TTK (TTK): 96
pIC50 (Vps34): 6.55
pIC50 (PI4KB): 6.76
4EBP1 phosphorylation (4EBP1 phosphorylation): not changed at all
Erk phosphorylation (Erk phosphorylation; MOLM13 and HT cells): not in MOLM13 and HT
Erk phosphorylation (Erk phosphorylation; Namalwa, MEC-1, MEC-2 and HS505T cells): reduced
NF-kB P65 phosphorylation [2]: not inhibited
pEC50 ([3]; Homo sapiens, CLL cell, HS505T (CLL) cells): > 6.00
pEC50 ([3]; Homo sapiens, HT (B-NHL) cells): > 6.00
pEC50 ([3]; Homo sapiens, MOLM-13 (AML) cells): > 6.00
pEC50 ([3]; MEC-1 (CLL) cells): > 6.00
pEC50 ([3]; MEC-2 (CLL) cells): > 6.00
pEC50 ([3]; Namalwa (Burkitt Lymphoma) cells): > 6.00
phosphorylation of Akt substrates PRAS40 GSK3b and FOXO1 [4]: decreased phosphorylation
